Results on two substances are retold here after patent US7468353B2, “Biologically active substance of a vasoactive intestinal peptide for treating interstitial lung diseases” (Mondobiotech Laboratories Anstalt, priority 2003, dated 2008).

Experiment [1] concerns CD 83 surface molecules on human dentritic cells. In words: Effect of VIP on maturation of human dentritic cells: CD 83 surface molecules, fluorescence-activated cell analysis. It counts as cell-based. The source says: (§1) FIGS. 1-11 show the effect of VIP on the maturation of human dentritic cells. […] is a characteristic surface protein on mature dentritic cells. Low rates of said protein indicate non-maturation of cells and thus, the inability to execute their biological function. […] Said reduction is indicated by the value M1 38.22—when measuring after application of 9.1 μmol—and compared to the value M1 81.26 (FIG. 10) of untreated cells (FIG. 1)—in the fluorescence-activated cell analysis. This procedure consists of searching the cell surfaces with the help of fluorescence-marked antibodies for the corresponding antigens (here: CD 83).

In experiment [2] the test system is MHC I surface molecules on human dentritic cells. Briefly: Effect of VIP on human dentritic cells: MHC I surface molecules, fluorescence-activated cell analysis. It counts as cell-based.
Experiment [3] relates to MHC II surface molecules on human dentritic cells. Briefly: Effect of VIP on human dentritic cells: MHC II surface molecules, fluorescence-activated cell analysis. The experiment is classed as cell-based.
Description: [The procedure below names another target; the source lists this target under the same test.] as §1

In a further experiment the target is T1, PACAP receptor type I (Homo sapiens, UniProt P41586).
T1 sequence (P41586 21-468): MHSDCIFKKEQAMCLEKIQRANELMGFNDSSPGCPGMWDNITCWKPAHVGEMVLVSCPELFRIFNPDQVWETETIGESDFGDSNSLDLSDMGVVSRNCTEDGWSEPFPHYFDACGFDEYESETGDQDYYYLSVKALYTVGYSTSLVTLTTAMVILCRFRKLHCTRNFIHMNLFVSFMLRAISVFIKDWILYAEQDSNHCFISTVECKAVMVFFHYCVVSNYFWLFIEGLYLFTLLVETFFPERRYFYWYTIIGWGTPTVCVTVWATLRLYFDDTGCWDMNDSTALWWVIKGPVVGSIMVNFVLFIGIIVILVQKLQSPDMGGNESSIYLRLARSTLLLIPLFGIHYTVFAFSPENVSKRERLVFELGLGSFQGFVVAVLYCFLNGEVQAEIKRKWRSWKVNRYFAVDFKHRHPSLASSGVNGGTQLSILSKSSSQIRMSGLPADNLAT
Conditions: cited from earlier work.

The next experiment deals with PACAP receptor type II. To be noted: PACAP versus VIP; cited from earlier work.
The mark [4] stands for this setting: VIP 9.1 μM, marker All, FIG. 11.

With “His-Ser-Asp-Ala-Val-Phe-Thr-Asp-Asn-Tyr-Thr-Arg-Leu-Arg-Lys-Gln-Met-Ala-Val-Lys-Lys-Tyr-Leu-Asn-Ser-Ile-Leu-Asn [VIP]”, in experiment [1] (VIP 1 μM, FIG. 6), the “CD 83 % Gated, marker All” value is reported as 100.00%; the “CD 83 Mean, marker All” value is listed as 108.13; the “CD 83 % Gated, marker M1” value came out at 69.70%; the “CD 83 Mean, marker M1” value is reported as 137.30. Also, in experiment [1] (VIP 9.1 μM, FIG. 10), the “CD 83 % Gated, marker All” value is listed as 100.00%; the “CD 83 Mean, marker All” value was 76.48; the “CD 83 % Gated, marker M1” value is 38.22%; the “CD 83 Mean, marker M1” value is 143.06. For the same substance, the “value M1 for CD 83” value in experiment [1] (after application of 9.1 μmol VIP, untreated cells 81.26) amounted to 38.22. For the same substance, the “effect on CD 83 surface molecules” value in experiment [1] (application of 1 μmol VIP (FIG. 5)) is “dramatic reduction”. In experiment [1] (application of 9.1 μmol VIP (FIG. 9)), the “effect on CD 83 surface molecules” value was “dramatic reduction”. The “value M1 for MHC 1” value in experiment [2] (9.1 μmol VIP, untreated cells 85.59) is on record as 70.57. Besides, in experiment [2] (VIP 1 μM, marker All, FIG. 7), the “MHC I % Gated, marker All” value is given as 100.00% and the “MHC I Mean, marker All” value stood at 200.61. In addition, in experiment [2] (VIP 1 μM, marker M1, FIG. 7), the “MHC I % Gated, marker M1” value came out at 78.69% and the “MHC I Mean, marker M1” value came out at 242.97. For the same substance, in experiment [2] (setting [4]), the “MHC 1 % Gated, marker All” value is listed as 100.00% and the “MHC 1 Mean, marker All” value came to 136.67. Besides, in experiment [2] (VIP 9.1 μM, marker M1, FIG. 11), the “MHC 1 % Gated, marker M1” value was 70.57% and the “MHC 1 Mean, marker M1” value stood at 174.61. In addition, the “inhibition of MHC I surface molecules compared with CD 83” value in experiment [2] (same dose of VIP) was “far less inhibited”. Moreover, in experiment [3] (9.1 μmol VIP, untreated cells 83.94), the “value M1 for MHC II” value is 77.73. In addition, in experiment [3] (VIP 1 μM, FIG. 8), the “MHC II % Gated, marker All” value came to 100.00%; the “MHC II Mean, marker All” value is 170.33; the “MHC II % Gated, marker M1” value stood at 77.41%; the “MHC II Mean, marker M1” value is 207.21. In addition, in experiment [3] (VIP 9.1 μM, FIG. 12), the “MHC II % Gated, marker All” value is listed as 100.00%; the “MHC II Mean, marker All” value worked out at 175.73; the “MHC II % Gated, marker M1” value turned out to be 77.73%; the “MHC II Mean, marker M1” value stood at 213.25. Moreover, the “inhibition of MHC II surface molecules compared with CD 83” value in experiment [3] (same dose of VIP) was “far less inhibited”. Moreover, the “affinity of receptor type I” value with PACAP receptor type I was “very low affinity”. The “affinity of receptor type II” value in the experiment on PACAP receptor type II was “similar”.
As for “His-Ser-Asp-Gly-Ile-Phe-Thr-Asp-Ser-Tyr-Ser-Arg-Tyr-Arg-Lys-Gln-Met-Ala-Val-Lys-Lys-Tyr-Leu-Ala-Ala-Val-Leu-Gly-Lys-Arg-Tyr-Lys-Gln-Arg-Val-Lys-Asn-Lys [PACAP]”, the “affinity of receptor type I” value in the experiment with PACAP receptor type I is “high affinity”. Moreover, the “affinity of receptor type II” value in the experiment on PACAP receptor type II is on record as “similar”.
